Results as given in patent US9551711B2, “Compositions and methods for detecting nitration of PKG-1α and methods of use thereof” (Augusta University Research Institute, Inc., priority 2013, dated 2017).

Columns and labels:
PKG-1α [1] = assay: PKG-1α protein levels in transfected PASMC (Western blot); assay type: cell-based, lamb; details: SIN-1 500 μM, 48 h
Description: Therefore, the effect of these events were investigated in PASMC transiently transfected with expression plasmids containing WT- and Y247F-PKG-1α. The effect of nitration on pulmonary arterial smooth muscle cell (PASMC) growth and metabolism was determined. PASMC were transiently transfected with expression plasmids containing WT-PKG-1α, Y247F-PKG-1α or pDEST40 (as a control) for 20 h. Cells were then exposed or not to SIN-1 (500 μM, 48 h) and the effect on PKG protein levels (FIG. 2A) and activity determined (FIG. 2B).

PKG-1α [2] = molecular target: T1, PKG-1α (Homo sapiens, UniProt Q13976, Y247F); assay: PKG catalytic activity, Michaelis-Menten kinetics for cGMP; assay type: biochemical; parameters: made in house; host or cells: HEK-293T; details: Y247F mutant upon SIN-1 treatment
T1 sequence (Q13976 2-671 Y247F): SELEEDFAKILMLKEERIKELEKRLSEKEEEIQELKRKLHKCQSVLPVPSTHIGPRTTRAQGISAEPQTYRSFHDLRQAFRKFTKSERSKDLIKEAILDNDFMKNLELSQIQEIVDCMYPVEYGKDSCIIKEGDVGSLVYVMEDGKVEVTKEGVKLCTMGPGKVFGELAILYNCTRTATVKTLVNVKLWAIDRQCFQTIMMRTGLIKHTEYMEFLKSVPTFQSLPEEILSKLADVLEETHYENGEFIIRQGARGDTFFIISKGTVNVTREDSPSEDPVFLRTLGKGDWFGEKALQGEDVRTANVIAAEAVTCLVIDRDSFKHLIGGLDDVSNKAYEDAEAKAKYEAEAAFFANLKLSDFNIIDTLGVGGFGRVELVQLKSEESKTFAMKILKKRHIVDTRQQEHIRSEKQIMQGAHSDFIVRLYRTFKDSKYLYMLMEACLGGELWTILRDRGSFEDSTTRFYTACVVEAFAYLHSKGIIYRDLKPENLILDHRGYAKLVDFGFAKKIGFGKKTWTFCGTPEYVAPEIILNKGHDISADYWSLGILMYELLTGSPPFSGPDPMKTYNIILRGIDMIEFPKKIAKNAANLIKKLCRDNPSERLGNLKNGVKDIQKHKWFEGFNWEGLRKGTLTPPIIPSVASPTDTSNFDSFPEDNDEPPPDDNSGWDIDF
Description: Total PKG activity was determined using a non-radioactive immunoassay in cell lysates, according to the manufacturer's directions. Briefly, protein samples were diluted in kinase reaction buffer containing Mg^2+ and ATP (125 μM) in the presence or absence of 8-Br cGMP (10 μM) and incubated in a 96 well plate pre-coated with a PKG substrate containing threonine residues phosphorylated by PKG.
After incubation for 30 min at 30° C. to allow the phosphorylation of the bound substrate, an HRP conjugated anti-phosphothreonine specific antibody was added to convert a chromogenic substrate to a colorimetric substrate that was subsequently read spectrophotometrically at 450 nm. The change in absorbance reflected the relative activity of PKG in the sample. The results were reported as pmols of phosphate incorporated into the GST-G substrate fusion protein by active PKG in the sample in the presence or absence of cGMP (10 μM) per minute at 30° C. per μg of protein (pmol/min/μg). […] The kinetic constants were determined using nonlinear regression (curve fit) analysis (GraphPad Prism Software Inc.).
To determine the Michaelis-Menten constant (Km) for cGMP, the kinase assay was performed, as mentioned above; however, the cGMP concentration was titrated from 0-10 μM, while the ATP concentration remained constant at 125 μM.

## 3-morpholinosydnonimine N-ethylcarbamide [SIN-1]
PKG-1α [1]
  PKG-1α protein levels: no effect
PKG-1α [2]
  change of Michaelis-Menten constant (Km) for cGMP: no significant change
